# Legend:
# cells [1] = settings: cited from earlier work
# [2] = system: tumor growth and metastases; settings: cited from earlier work
# [3] = system: vascular endothelial cell; settings: cited from earlier work
# [4] = type: in vivo; settings: mice; Table 1
# Text: (§1) The neovascularization experiment described in Example 2 was repeated using the corneal micropockets in mice. The compounds tested were cytochalasin E, astaphiatin, arglabin, epoxycytochalasin-H, ozonolyzed cytochalasin-E, and precursor cytochalasin-E. The results of these compound's ability to inhibit angiogenesis are shown in Table 1.
# [5] = system: corneal neovascularization (corneal micropockets); experiment: neovascularization experiment using corneal micropockets in mice; type: in vivo; settings: mouse corneal micropockets; Table 1
# Protocol: (§2) Pellets for implantation into rabbit corneas were made by mixing 110 μl of saline containing 12 μg of recombinant bFGF (Takeda Pharmaceuticals-Japan) with 40 mg of sucralfate (Bukh Meditec-Denmark); this suspension was added to 80 μl of 12% hydron (Interferon Sciences) in ethanol. 10 μl aliquots of this mixture was then pipetted onto teflon pegs and allowed to dry producing approximately 17 pellets. A pellet was implanted into corneal micropockets of each eye of an anesthetized female New Zealand white rabbit, 2 mm from the limbus followed by topical application of erythromycin ointment onto the surface of the cornea. The animals were fed daily from 2 days post-implantation by gastric lavage with cytochalasin E or the aldehyde methyl ester derivative of cytochalasin E suspended in 0.5% carboxymethyl cellulose or 0.5% carboxymethyl cellulose alone. The animals were examined with a slit lamp every other day in a masked manner by the same corneal specialist. The area of corneal neovascularization was determined by measuring with a reticule the vessel length (L) from the limbus and the number of clock hours (C) of limbus involved. A formula was used to determine the area of a circular band segment: C/12*3.1416 [r^2 -(r-L)^2 ] where r=6 mm the measured radius of the rabbit cornea.
# as §1
# [6] = system: Bovine capillary endothelial (BCE) cells; experiment: inhibition of bovine capillary endothelial cell proliferation (BCE), compared to NIH3T3 fibroblasts; type: cell-based; settings: for less active (inhibition of endothelial cell proliferation): relative to cytochalasin E
# Protocol: (§3) Bovine capillary endothelial (BCE) cells and Swiss mouse embryo fibroblast cells (NIH3T3) were isolated as previously described (Folkman, , et al., Proc. Nat. Acad. Sci USA., 76:5217-21(1979)) and maintained in DMEM supplemented with 10% heat-inactivated bovine calf serum (BCS), antibiotics, and 3 ng/ml recombinant human bFGF (Scios Nova, Mountainview,Calif.). Monolayers of the cells growing in 6-well plates were dispersed in a 0.05% trypsin solution. The cells were re-suspended with DMEM containing 10% BCS. Approximately 12,500 cells in 0.5 ml were added to each well of gelatinized 24-well tissue culture plates and incubated at 37° C. (in 10% CO2) for 24 hours. The medium was replaced with […] of fresh DMEM containing 5% BCS. Samples of cytochalasin E, cytochalasin A, and cytochalasin H were added to each well in triplicate. After 30 minutes of incubation, bFGF was added to a final concentration of 1 ng/ml. After 72 hours of incubation, cells were trypsinized, re-suspended in Hematall (Fisher Scientific, Pittsburg, Pa.) and counted with a Coulter counter.
# FIG. 2 is a graph showing the inhibition of bovine capillary endothelial cell proliferation (BCE) (squares) compared to Swiss mouse embryo fibroblast cells (NIH3T3). […] The ordinate measures drug concentration in grams per milliliter.
# Lewis lung carcinoma [7] = experiment: Lewis lung carcinoma tumor growth (Example 5); type: in vivo, mice (C57BI6/J); settings: 2 mg/kg/day
# Protocol: (§4) Syngeneic C57BI6/J six-week-old male mice were injected (subcutaneous dorsum) with 1×10^6 tumor cells. Visible tumors first appeared after 3-4 days. When tumors were approximately 1500 mm^3 in size, mice were randomized into two groups. The primary tumor was completely excised in the first group and left intact in the second group after a sham operation. Although tumors from 500 mm^3 to 3000 mm^3 inhibited growth of metastases, 1500 mm^3 was the largest primary tumor that could be safely resected with high survival and no local recurrence.
# This experimental model gave reproducible data and the experiment described is reproducible. This tumor is labeled "Lewis lung carcinoma--low metastatic" (LLC-Low).
# Lewis lung carcinoma [8] = experiment: Lewis lung experiment, inhibition of tumor growth (Example 6); type: in vivo, mice (C57BI6/J); settings: 2.0 mg/kg qd (printed 'od' for methanolyzed compound)
# Protocol: as §4
# The Lewis lung experiment of Example 5 was repeated using cytochalasin E and methanolyzed cytochalasin E. The results of this experiment are presented in the table below.
# [9] = system: basic fibroblast growth factor (bFGF) driven corneal neovascularization; experiment: rabbit cornea assay, bFGF driven corneal neovascularization; type: in vivo, rabbit (New Zealand white); settings: 2 mg/kg/day, text says subcutaneously administered (method: gastric lavage)
# Protocol: as §2
# cells [10] = settings: cited from earlier work; remark: listed apart in the source
# [11] = system: Bovine capillary endothelial (BCE) cells; experiment: inhibition of bovine capillary endothelial cell proliferation (BCE), cytochalasin E vs epoxycytochalasin J; type: cell-based; settings: compared with cytochalasin E; FIG. 3
# Protocol: as §3, with “(BCE)” for “(BCE) cells and Swiss mouse embryo fibroblast cells (NIH3T3)”, “76:5217-21 (1979))” for “76:5217-21(1979))”, “Mountainview, Calif.).” for “Mountainview,Calif.).”, “E” for “E, cytochalasin A,”, “epoxycytochalasin J” for “cytochalasin H”
# The ordinate measures drug concentration in grams per milliliter.
# tumors cells = settings: cited from earlier work
# [12] = system: tumor-induced angiogenesis in mouse dermis; settings: cited from earlier work
compound,measurement,setting,value
"C=C1C(C)C2C(Cc3ccccc3)NC(=O)C23OC(=O)/C=C/C(O)CCCC(C)C/C=C/C3C1O (single isomer, unassigned) [cytochalasin B]",changes in cell structure,cells [1],a number of morphological changes in cell structure
CO[C@@H]1[C@H](OC(=O)NC(=O)CCl)CC[C@]2(CO2)[C@H]1[C@@]1(C)O[C@@H]1CC=C(C)C [AGM-1470],inhibition of tumor growth and metastases in vivo,[2],inhibits tumor growth and metastases in vivo
same,activity in inhibiting tumor cell proliferation in vitro,[3]; compared with inhibition in vivo,much less active
same,half-maximal inhibition of vascular endothelial cell proliferation at lower concentration than tumor cell proliferation,[3]; endothelial vs tumor cell proliferation,4 logs
C=C1C(=O)O[C@@H]2[C@H]3C(C)=CC[C@@]34O[C@@]4(C)CC[C@@H]12 [Arglabin],% Weight Loss,[4],2.69%
same,% Inhibition (ability to inhibit angiogenesis),[5],22.72%
C=C1C(=O)OC2C1CCC(=C)C1CC3OC3(C)C12 (stereo not drawn) [Astaphiatin],% Weight Loss,[4],6.92%
same,% Inhibition (ability to inhibit angiogenesis),[5],33.56%
CC(=O)O[C@@H]1/C=C/[C@](C)(O)C[C@@H](C)C/C=C/[C@H]2[C@@H]3O[C@]3(C)[C@@H](C)[C@H]3[C@H](Cc4ccccc4)NC(=O)[C@@]312 [Epoxycytochalasin-H],% Weight Loss,[4],2.46%
same,% Inhibition (ability to inhibit angiogenesis),[5],27.35%
CC1C2C(Cc3ccccc3)NC(=O)C2(O)C(CO)C2OC12C (stereo not drawn) [Ozonolyzed Cytochalasin-E],% Weight Loss,[4],4.00%
same,% Inhibition (ability to inhibit angiogenesis),[5],20.00%
C=C1C(C)C2C(Cc3ccccc3)NC(=O)C23OC(=O)/C=C/C(=O)CCCC(C)C/C=C/C3C1O (stereo not drawn) [cytochalasin A],less active (inhibition of endothelial cell proliferation),[6],1000 fold
"CC1C/C=C/C2C3OC3(C)C(C)C3C(Cc4ccccc4)NC(=O)C23OC(=O)O/C=C/C(C)(O)C1=O [cytochalasin E, (6S,7S,16R,18R)-6,7-epoxy-18-hydroxy-16-methyl-10-phenyl-21 ,23-dioxa-[13]cytochalasa-13(E), 19(E)-diene-1,17,22-trione]",inhibited tumor growth,Lewis lung carcinoma [7],74%
same,% Weight Loss,[4],0.00%
same,IC50,"[6]; Bos taurus, Endothelial cell, bFGF 1 ng/ml, 72 hours",0.002 ng/mL
same,"Inhibition of Tumor Growth, T/C",Lewis lung carcinoma [8],0.28
same,% Inhibition (ability to inhibit angiogenesis),[5],45.00%
same,inhibition of bFGF driven corneal neovascularization,[9],50%
C=C1C(C)C2C(Cc3ccccc3)NC(=O)C23C(OC(C)=O)/C=C/C(C)(O)CC(C)C/C=C/C3C1O (stereo not drawn) [cytochalasin H],disaggregation of cells,cells [10],produces disaggregation of cells
same,less active (inhibition of endothelial cell proliferation),[6],1000 fold
C[C@H]1C/C=C/[C@H]2[C@@H]3O[C@]3(C)[C@@H](C)[C@@H]3[C@H](Cc4ccccc4)NC(=O)[C@]32[C@H](O)/C=C/[C@](C)(O)C1 [epoxycytochalasin J],effectiveness as inhibitor of bovine capillary endothelial cell proliferation,[11],even more effective inhibitor
bFGF: basic fibroblast growth factor (bFGF),mitogen for the tumor cells in vitro,tumors cells,not a mitogen
interferon alpha,inhibition of tumor-induced angiogenesis,[12],inhibit tumor-induced angiogenesis
